Assay results: patent US20220071925A1, “MEDICINAL COMPOSITION FOR PREVENTING OR TREATING BONE DISEASES” (GEXVAL INC., priority 2019, published 2022)

Legend:
[1] = system: R264.7 cells; assay: Combined effect of compounds on LPS-stimulated mouse macrophage-derived cells, gene expression by RNA sequencing (Test Example 2); type: cell-based; conditions: LPS 100 ng/mL 24 h, free fatty acid (stearic acid) 10 μM, Fasiglifam 10 μM, alone or in combination
Experimental: The combined effect of the compounds on the change when macrophage cells were stimulated by lipopolysaccharide (LPS) derived from bacteria was examined by integrated gene expression analysis using RNA next-generation sequencing. […].7 cells purchased from KAC Co., Ltd. were used in the test. The cells were suspended in DMEM with 10% serum, seeded in a 24-well plate at a concentration of 1.6×10^5 cells/well, and cultured at 37° C. under a 5% CO2 condition. 30 minutes prior to addition of LPS, a free fatty acid at 10 μM and Fasiglifam at 10 μM were added alone or in combination. Stearic acid was used as the free fatty acid. After culturing for 30 minutes after addition of the compound, LPS was added to each well at a concentration of 100 ng/mL. PBS of the same amount as LPS was added to a non-stimulated control group. After culturing for 24 hours with the addition of LPS, the medium was removed, and total RNA was extracted using RNeasy (QIAGEN). mRNA was recovered from the total RNA to prepare a library, and RNA sequencing (Illumina Hiseq) was performed. Samples from the following five groups were sequenced, and the expression level of each gene was estimated from the obtained read count data. […] Further, these expression-fluctuated genes were subjected to a pathway analysis to examine their association with the disease.

[2] = target: GPR40 (Homo sapiens, UniProt O14842); conditions: cited from earlier work
Sequence of GPR40 (O14842 whole entry, species assumed): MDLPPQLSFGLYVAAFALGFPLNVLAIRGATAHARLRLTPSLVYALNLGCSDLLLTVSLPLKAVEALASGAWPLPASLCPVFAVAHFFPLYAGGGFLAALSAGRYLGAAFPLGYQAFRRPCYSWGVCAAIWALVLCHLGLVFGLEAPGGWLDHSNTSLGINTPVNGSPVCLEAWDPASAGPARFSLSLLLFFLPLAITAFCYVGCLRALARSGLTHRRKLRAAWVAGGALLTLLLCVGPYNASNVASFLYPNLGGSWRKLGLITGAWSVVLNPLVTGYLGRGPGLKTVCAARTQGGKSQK

[3] = system: osteoclasts; conditions: caused by interaction of osteoclasts (RANK) with osteoblasts (RANKL); cited from earlier work
[4] = system: osteoclasts; conditions: action of GW9508 on GPR40; cited from earlier work
[5] = in vivo; cited from earlier work

**Q.** With `Cc1cc(OCCCS(C)(=O)=O)cc(C)c1-c1cccc(COc2ccc3c(c2)OC[C@H]3CC(=O)O)c1` [Fasiglifam, [(3S)-6-({2′,6′-dimethyl-4′-[3-(methylsulfonyl)propoxy]biphenyl-3-yl}methoxy)-2,3-dihydro-1-benzofuran-3-yl]acetic acid] as the compound, how does the AAAS expression level [1] read?
**A.** The AAAS expression level was 0.

**Q.** What about the BCL2L1 expression level [1] of the same compound?
**A.** The BCL2L1 expression level was 0.

**Q.** And the C3AR1 expression level [1]?
**A.** Its C3AR1 expression level is 0.

**Q.** What about the CCL2 expression level [1] of the same compound?
**A.** Its CCL2 expression level is 0.

**Q.** What about the CCL3 expression level [1] of the same compound?
**A.** Its CCL3 expression level is 0.

**Q.** And the CCL4 expression level [1]?
**A.** The CCL4 expression level was 0.

**Q.** And the CD36 expression level [1]?
**A.** Its CD36 expression level is 0.

**Q.** And the CSF1R expression level [1]?
**A.** The CSF1R expression level was 0.

**Q.** What about the CSF3 expression level [1] of the same compound?
**A.** Its CSF3 expression level is 0.

**Q.** And the DUSP5 expression level [1]?
**A.** Its DUSP5 expression level is 0.

**Q.** And the EIF4B expression level [1]?
**A.** Its EIF4B expression level is 0.

**Q.** What about the EIF4G2 expression level [1] of the same compound?
**A.** The EIF4G2 expression level was 0.

**Q.** And the GBP7 expression level [1]?
**A.** The GBP7 expression level was 0.

**Q.** What about the GRIN1 expression level [1] of the same compound?
**A.** The GRIN1 expression level was 0.

**Q.** What about the IL7R expression level [1] of the same compound?
**A.** The IL7R expression level was 0.

**Q.** And the IP6K2 expression level [1]?
**A.** The IP6K2 expression level was 0.

**Q.** What about the LYN expression level [1] of the same compound?
**A.** Its LYN expression level is 0.

**Q.** And the NF1 expression level [1]?
**A.** The NF1 expression level was 0.

**Q.** And the NOS2 expression level [1]?
**A.** Its NOS2 expression level is 0.

**Q.** And the PIK3CD expression level [1]?
**A.** Its PIK3CD expression level is 0.

**Q.** What about the PIM1 expression level [1] of the same compound?
**A.** The PIM1 expression level was 0.

**Q.** And the PIP5K1C expression level [1]?
**A.** The PIP5K1C expression level was 0.

**Q.** And the PLAUR expression level [1]?
**A.** The PLAUR expression level was 0.

**Q.** And the PLEKHO2 expression level [1]?
**A.** The PLEKHO2 expression level was 0.

**Q.** And the PPP2CA expression level [1]?
**A.** Its PPP2CA expression level is 0.

**Q.** What about the PSMA6 expression level [1] of the same compound?
**A.** Its PSMA6 expression level is 0.

**Q.** What about the PSMA7 expression level [1] of the same compound?
**A.** Its PSMA7 expression level is 0.

**Q.** What about the PSMC2 expression level [1] of the same compound?
**A.** Its PSMC2 expression level is 0.

**Q.** And the PSMD13 expression level [1]?
**A.** Its PSMD13 expression level is 0.

**Q.** And the PYGB expression level [1]?
**A.** The PYGB expression level was 0.

**Q.** And the RASGRP3 expression level [1]?
**A.** The RASGRP3 expression level was 0.

**Q.** What about the SDCBP expression level [1] of the same compound?
**A.** Its SDCBP expression level is 0.

**Q.** And the SMPD1 expression level [1]?
**A.** The SMPD1 expression level was 0.

**Q.** And the SUMO1 expression level [1]?
**A.** Its SUMO1 expression level is 0.

**Q.** And the TNF expression level [1]?
**A.** Its TNF expression level is 0.

**Q.** What about the TNFRSF1B expression level [1] of the same compound?
**A.** Its TNFRSF1B expression level is 0.

**Q.** And the TNFSF8 expression level [1]?
**A.** The TNFSF8 expression level was 0.

**Q.** And the TNRC6B expression level [1]?
**A.** Its TNRC6B expression level is 0.

**Q.** What about the “agonist selectivity GPR40 versus GPR120” value [2] of the same compound?
**A.** Its value is “selective agonist for GPR40”.

**Q.** With `CCCCCCCCCCCCCCCCCC(=O)O` [Fatty acid, Stearic acid] as the compound, how does the AAAS expression level [1] read?
**A.** Its AAAS expression level is 0.

**Q.** And the BCL2L1 expression level [1]?
**A.** The BCL2L1 expression level was 0.

**Q.** What about the C3AR1 expression level [1] of the same compound?
**A.** The C3AR1 expression level was 0.

**Q.** What about the CCL2 expression level [1] of the same compound?
**A.** The CCL2 expression level was 0.

**Q.** What about the CCL3 expression level [1] of the same compound?
**A.** The CCL3 expression level was 0.

**Q.** And the CCL4 expression level [1]?
**A.** The CCL4 expression level was 0.

**Q.** And the CD36 expression level [1]?
**A.** Its CD36 expression level is 0.

**Q.** And the CSF1R expression level [1]?
**A.** The CSF1R expression level was 0.

**Q.** What about the CSF3 expression level [1] of the same compound?
**A.** Its CSF3 expression level is 0.

**Q.** What about the DUSP5 expression level [1] of the same compound?
**A.** The DUSP5 expression level was 0.

**Q.** And the EIF4B expression level [1]?
**A.** Its EIF4B expression level is 0.

**Q.** And the EIF4G2 expression level [1]?
**A.** Its EIF4G2 expression level is 0.

**Q.** And the GBP7 expression level [1]?
**A.** The GBP7 expression level was 0.

**Q.** What about the GRIN1 expression level [1] of the same compound?
**A.** Its GRIN1 expression level is 0.

**Q.** And the IL7R expression level [1]?
**A.** The IL7R expression level was 0.

**Q.** What about the IP6K2 expression level [1] of the same compound?
**A.** The IP6K2 expression level was 0.

**Q.** And the LYN expression level [1]?
**A.** The LYN expression level was 0.

**Q.** And the NF1 expression level [1]?
**A.** Its NF1 expression level is 0.

**Q.** And the NOS2 expression level [1]?
**A.** The NOS2 expression level was 0.

**Q.** What about the PIK3CD expression level [1] of the same compound?
**A.** Its PIK3CD expression level is 0.

**Q.** And the PIM1 expression level [1]?
**A.** Its PIM1 expression level is 0.

**Q.** What about the PIP5K1C expression level [1] of the same compound?
**A.** Its PIP5K1C expression level is 0.

**Q.** And the PLAUR expression level [1]?
**A.** The PLAUR expression level was 0.

**Q.** And the PLEKHO2 expression level [1]?
**A.** The PLEKHO2 expression level was 0.

**Q.** What about the PPP2CA expression level [1] of the same compound?
**A.** The PPP2CA expression level was 0.

**Q.** And the PSMA6 expression level [1]?
**A.** The PSMA6 expression level was 0.

**Q.** What about the PSMA7 expression level [1] of the same compound?
**A.** The PSMA7 expression level was 0.

**Q.** What about the PSMC2 expression level [1] of the same compound?
**A.** Its PSMC2 expression level is 0.

**Q.** What about the PSMD13 expression level [1] of the same compound?
**A.** Its PSMD13 expression level is 0.

**Q.** What about the PYGB expression level [1] of the same compound?
**A.** The PYGB expression level was 0.

**Q.** And the RASGRP3 expression level [1]?
**A.** Its RASGRP3 expression level is 0.

**Q.** And the SDCBP expression level [1]?
**A.** Its SDCBP expression level is 0.

**Q.** And the SMPD1 expression level [1]?
**A.** Its SMPD1 expression level is 0.

**Q.** And the SUMO1 expression level [1]?
**A.** The SUMO1 expression level was 0.

**Q.** What about the TNF expression level [1] of the same compound?
**A.** The TNF expression level was 0.

**Q.** What about the TNFRSF1B expression level [1] of the same compound?
**A.** The TNFRSF1B expression level was 0.

**Q.** And the TNFSF8 expression level [1]?
**A.** Its TNFSF8 expression level is 0.

**Q.** And the TNRC6B expression level [1]?
**A.** The TNRC6B expression level was 0.

**Q.** What does the source list for `O=C(O)CCc1ccc(NCc2cccc(Oc3ccccc3)c2)cc1` [GW9508]?
**A.** agonist selectivity GPR40 versus GPR120 [2]: dual agonist for GPR40 and GPR120; formation of osteoclasts (differentiation and maturation into osteoclasts) [3]: suppressing the formation of osteoclasts; differentiation into osteoclasts [4]: the differentiation into osteoclasts is suppressed; bone loss due to ovariectomy [5]: bone loss due to ovariectomy can be prevented
